{"source": "ChEMBL document CHEMBL1148009", "about": "“Synthesis of amphiphilic galactopyranosyl diamines and amino alcohols as antitubercular agents” (2007)", "data": [{"test_system": "Mycobacterium tuberculosis", "assay": "Antitubercular activity against Mycobacterium tuberculosis H37Rv", "type": "functional", "units": {"MIC": "µg/mL"}, "values": [{"smiles": "CCCCCCCCCCCCCCCCCC(=O)NCCCN(C[C@H]1OC(O)[C@H](O)[C@@H](O)[C@H]1O)C(=O)CCCCCCCCCCCCCCCCC", "note": "(stereo partly specified)", "MIC": "> 50"}, {"smiles": "CCCCCCCCCCCCCCCC(=O)NCCCN(C[C@H]1O[C@@H]2OC(C)(C)O[C@@H]2[C@H]2OC(C)(C)O[C@H]21)C(=O)CCCCCCCCCCCCCCC", "MIC": "> 50"}, {"smiles": "CCCCCCCCCCCCCCCC(=O)NCCN(C[C@H]1O[C@@H]2OC(C)(C)O[C@@H]2[C@H]2OC(C)(C)O[C@H]21)C(=O)CCCCCCCCCCCCCCC", "MIC": "> 50"}, {"smiles": "CCCCCCCCCCCCCCCCCC(=O)NCCNC[C@H]1O[C@@H]2OC(C)(C)O[C@@H]2[C@H]2OC(C)(C)O[C@H]21", "MIC": "< 3.12"}, {"smiles": "CCCCCCCCCCCCCCCCCC(=O)NCCN(C[C@H]1OC(O)[C@H](O)[C@@H](O)[C@H]1O)C(=O)CCCCCCCCCCCCCCCCC", "note": "(stereo partly specified)", "MIC": "> 50"}, {"smiles": "CC1(C)O[C@H]2[C@@H](O1)[C@@H](CNCCO)O[C@@H]1OC(C)(C)O[C@@H]12", "MIC": "> 50"}, {"smiles": "CCCCCCCCCCCCCCCCCC(=O)NCCCNC[C@H]1O[C@@H]2OC(C)(C)O[C@@H]2[C@H]2OC(C)(C)O[C@H]21", "MIC": 12.5}, {"smiles": "CCCCCCCCCCCCCCCCCC(=O)OCCN(C[C@H]1O[C@@H]2OC(C)(C)O[C@@H]2[C@H]2OC(C)(C)O[C@H]21)C(=O)CCCCCCCCCCCCCCCCC", "MIC": "> 50"}, {"smiles": "CCCCCCCCCCCCCCCCCC(=O)N(CCO)C[C@H]1O[C@@H]2OC(C)(C)O[C@@H]2[C@H]2OC(C)(C)O[C@H]21", "MIC": 25}, {"smiles": "CC1(C)O[C@H]2[C@@H](O1)[C@@H](CNCCCN)O[C@@H]1OC(C)(C)O[C@@H]12", "MIC": "> 50"}, {"smiles": "CO[C@H]1/C=C/O[C@@]2(C)Oc3c(C)c(O)c4c(O)c(c(/C=N/N5CCN(C)CC5)c(O)c4c3C2=O)NC(=O)/C(C)=C\\C=C\\[C@H](C)[C@H](O)[C@@H](C)[C@@H](O)[C@@H](C)[C@H](OC(C)=O)[C@@H]1C", "note": "[RIFAMPIN]", "MIC": 1}]}]}
